Data from ChEMBL document CHEMBL2046362, “Synthesis and evaluation of novel potent HCV NS5A inhibitors” (Bioorg Med Chem Lett, 2012).

Columns and labels:
[1] = Cytotoxicity against human HuH7 cells; assay type: cell-based, Huh-7
[2] = Cytotoxicity against human PBMC cells; assay type: cell-based; conditions: PBMC cells
[3] = target: T1, Nonstructural protein 5A (Hepatitis C virus) (UniProt Q5L478); experiment: Inhibition of HCV NS5A assessed as antiviral activity against HCV by viral replicon assay; conditions: Hepacivirus hominis
T1 sequence (whole entry): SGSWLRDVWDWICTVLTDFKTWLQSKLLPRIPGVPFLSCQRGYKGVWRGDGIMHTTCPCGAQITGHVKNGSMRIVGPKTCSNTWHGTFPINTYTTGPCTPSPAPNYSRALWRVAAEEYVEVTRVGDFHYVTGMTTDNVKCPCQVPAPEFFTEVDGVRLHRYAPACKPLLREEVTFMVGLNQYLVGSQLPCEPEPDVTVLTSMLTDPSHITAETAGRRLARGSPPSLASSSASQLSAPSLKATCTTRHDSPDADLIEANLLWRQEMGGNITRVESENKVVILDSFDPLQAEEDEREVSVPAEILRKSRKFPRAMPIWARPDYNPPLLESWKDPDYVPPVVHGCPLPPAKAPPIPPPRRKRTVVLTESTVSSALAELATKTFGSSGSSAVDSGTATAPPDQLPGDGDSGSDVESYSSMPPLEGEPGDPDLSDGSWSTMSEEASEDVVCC

COC(=O)N[C@H](C(=O)N1C[C@H](N=[N+]=[N-])C[C@H]1c1ncc(-c2ccc(-c3ccc(-c4cnc([C@@H]5C[C@@H](N=[N+]=[N-])CN5C(=O)[C@@H](NC(=O)OC)C(C)C)[nH]4)cc3)cc2)[nH]1)C(C)C
CC50 [1]: > 1000 nM
CC50 [2]: > 100000 nM
EC90 [3]: 0.0542 nM
